Results reported in PMC6927412, “PMP–diketopiperazine adducts form at the active site of a PLP dependent enzyme involved in formycin biosynthesis” (Chemical Communications (Cambridge, England), 2019).

Columns and labels:
ForI [1] = target: T1, ForI (Streptomyces kaniharaensis, UniProt A0A5S8ZI02); assay: X-ray crystal structure, […] Å; mass spectrometry; assay type: binding; conditions: pH 8
T1 construct: gene cof17; homodimer, active site from both monomers; residues 3 to 417 located in crystal
T1 sequence (A0A5S8ZI02 1-423): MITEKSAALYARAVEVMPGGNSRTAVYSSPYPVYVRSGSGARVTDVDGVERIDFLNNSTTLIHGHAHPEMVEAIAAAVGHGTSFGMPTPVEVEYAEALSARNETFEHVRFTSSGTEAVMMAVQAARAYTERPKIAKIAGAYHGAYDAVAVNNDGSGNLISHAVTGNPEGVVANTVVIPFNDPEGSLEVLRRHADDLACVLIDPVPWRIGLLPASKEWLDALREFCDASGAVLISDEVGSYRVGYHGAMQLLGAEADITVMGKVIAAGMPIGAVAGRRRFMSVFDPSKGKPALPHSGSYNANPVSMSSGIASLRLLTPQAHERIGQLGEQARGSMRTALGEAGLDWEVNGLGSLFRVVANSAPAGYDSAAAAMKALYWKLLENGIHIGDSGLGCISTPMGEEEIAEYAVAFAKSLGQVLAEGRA

ForI [2] = target: T1, ForI; assay: UV-vis, mass spectrometry and crystal structure of the adduct; assay type: binding; conditions: covalent; reacts at PLP, bound species is the PMP-diketopiperazine adduct; 10 mM, pH 8, 4 °C
ForI [3] = target: T1, ForI; assay: X-ray crystal structure, […] Å; assay type: binding; conditions: crystals incubated with L-Glu for 20 min; non-covalent
ForI [4] = target: T1, ForI; assay: UV-vis spectrum of PLP cofactor; PMP form seen in crystal; assay type: biochemical; conditions: amino donor half-reaction; L-Glu itself not seen in density

Structure (SMILES): Cc1ncc(COP(=O)(O)O)c(/C=N/OC[C@@H]2NC(=O)[C@H](CON)NC2=O)c1O [PMP–diketopiperazine from L-cycloserine]
- X-ray crystal structure, 1.5 Å; mass spectrometry (ForI [1]; covalent adduct of PLP cofactor formed on incubation with 10 mM L-cycloserine): identified the formation of external aldimine PLP–diketopiperazine adducts

Structure (SMILES): N[C@@H]1CONC1=O [D-cycloserine]
- UV-vis, mass spectrometry and crystal structure of the adduct (ForI [2]): Incubation of ForI with either D- or L-cycloserine immediately shows changes in the UV-vis spectrum

Structure (SMILES): Cc1ncc(COP(=O)(O)O)c(CN)c1O [PMP]
- X-ray crystal structure, 1.56 Å (ForI [3]): the pyridoxal co-factor is unattached to the enzyme, suggesting it to be PMP

Structure (SMILES): N[C@H]1CONC1=O [L-cycloserine]
- UV-vis, mass spectrometry and crystal structure of the adduct (ForI [2]): Incubation of ForI with either D- or L-cycloserine immediately shows changes in the UV-vis spectrum

Structure (SMILES): Cc1ncc(COP(=O)(O)O)c(/C=N/OC[C@H]2NC(=O)[C@@H](CON)NC2=O)c1O [PMP–diketopiperazine from D-cycloserine]
- X-ray crystal structure, 1.5 Å; mass spectrometry (ForI [1]; covalent adduct of PLP cofactor formed on incubation with 10 mM D-cycloserine): identified the formation of external aldimine PLP–diketopiperazine adducts

Structure (SMILES): N[C@@H](CCC(=O)O)C(=O)O [L-Glu]
- UV-vis spectrum of PLP cofactor; PMP form seen in crystal (ForI [4]): Incubating ForI with L-Glu shows a rapid change in the UV-vis spectrum
